Laboratory results published in ChEMBL document CHEMBL1147545, “Synthesis and monoamine transporter affinity of 3'-analogs of 2-beta-carbomethoxy-3-beta-(4'-iodophenyl)tropane (beta-CIT)” (Bioorg Med Chem Lett, 2004).

Tests used:
[1] = biological target: Sodium-dependent noradrenaline transporter (Homo sapiens, UniProt P23975); assay: Binding affinity to norepinephrine (NE) transporter in membranes of cells selectively expressing the human genes for NET; format: cell membranes
[2] = biological target: Monoamine transporters; serotonin & dopamine (Homo sapiens) (UniProt P31645+Q01959); assay: Binding selectivity ratio at human serotonin transporter versus dopamine transporter (hSERT/hDAT); format: protein assay
Chain of Monoamine transporters; serotonin & dopamine (Homo sapiens) (P31645 whole entry, looked up): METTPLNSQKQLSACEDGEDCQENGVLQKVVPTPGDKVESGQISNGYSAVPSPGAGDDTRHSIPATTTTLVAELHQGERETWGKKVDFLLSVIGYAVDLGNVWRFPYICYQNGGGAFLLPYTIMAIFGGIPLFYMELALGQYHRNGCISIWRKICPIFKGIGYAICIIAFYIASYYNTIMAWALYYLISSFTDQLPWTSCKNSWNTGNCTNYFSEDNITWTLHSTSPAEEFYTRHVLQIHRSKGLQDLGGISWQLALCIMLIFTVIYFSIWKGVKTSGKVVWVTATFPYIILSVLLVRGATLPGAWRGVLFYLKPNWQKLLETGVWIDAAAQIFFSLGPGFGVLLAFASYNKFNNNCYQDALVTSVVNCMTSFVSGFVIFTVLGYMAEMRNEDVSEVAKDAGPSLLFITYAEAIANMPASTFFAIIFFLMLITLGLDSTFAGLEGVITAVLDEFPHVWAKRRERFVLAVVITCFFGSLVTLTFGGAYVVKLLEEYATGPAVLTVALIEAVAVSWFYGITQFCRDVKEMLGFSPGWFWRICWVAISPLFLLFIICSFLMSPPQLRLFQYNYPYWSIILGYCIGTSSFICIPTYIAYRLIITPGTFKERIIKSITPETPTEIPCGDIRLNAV
Chain of Monoamine transporters; serotonin & dopamine (Homo sapiens) (Q01959 whole entry, looked up): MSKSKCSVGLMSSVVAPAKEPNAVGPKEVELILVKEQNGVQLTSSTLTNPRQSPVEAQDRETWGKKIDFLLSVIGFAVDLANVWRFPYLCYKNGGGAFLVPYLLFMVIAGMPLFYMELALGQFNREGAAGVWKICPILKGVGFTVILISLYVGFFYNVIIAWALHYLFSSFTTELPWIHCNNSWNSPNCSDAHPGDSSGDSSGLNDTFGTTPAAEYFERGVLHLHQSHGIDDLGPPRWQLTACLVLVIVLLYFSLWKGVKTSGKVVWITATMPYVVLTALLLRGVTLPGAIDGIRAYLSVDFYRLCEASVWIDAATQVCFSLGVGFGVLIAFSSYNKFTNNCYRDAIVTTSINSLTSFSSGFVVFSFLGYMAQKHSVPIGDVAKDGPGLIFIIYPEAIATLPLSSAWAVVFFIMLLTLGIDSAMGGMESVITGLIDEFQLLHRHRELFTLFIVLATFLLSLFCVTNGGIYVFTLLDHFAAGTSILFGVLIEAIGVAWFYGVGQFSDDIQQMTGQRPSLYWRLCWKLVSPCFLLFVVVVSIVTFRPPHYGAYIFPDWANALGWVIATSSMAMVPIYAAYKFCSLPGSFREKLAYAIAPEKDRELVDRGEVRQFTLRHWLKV

[3] = biological target: Sodium-dependent serotonin transporter (Homo sapiens, UniProt P31645); assay: Binding affinity to serotonin transporter (SERT) in membranes of cells selectively expressing the human genes for SERT; format: cell membranes
Chain of Sodium-dependent serotonin transporter (Homo sapiens, UniProt P31645) (P31645 whole entry): as the sequence (P31645 whole entry, looked up) above

[4] = biological target: Sodium-dependent dopamine transporter (Homo sapiens, UniProt Q01959); assay: Binding affinity to dopamine transporter in membranes of cells selectively expressing the human genes for DAT; format: cell membranes
Chain of Sodium-dependent dopamine transporter (Homo sapiens, UniProt Q01959) (Q01959 whole entry): as the sequence (Q01959 whole entry, looked up) above

[5] = biological target: Sodium-dependent serotonin transporter (Rattus norvegicus, UniProt P31652); assay: Binding affinity to serotonin transporter (SERT) in rat forebrain tissue; format: tissue-based
Chain of Sodium-dependent serotonin transporter (Rattus norvegicus, UniProt P31652) (P31652 whole entry): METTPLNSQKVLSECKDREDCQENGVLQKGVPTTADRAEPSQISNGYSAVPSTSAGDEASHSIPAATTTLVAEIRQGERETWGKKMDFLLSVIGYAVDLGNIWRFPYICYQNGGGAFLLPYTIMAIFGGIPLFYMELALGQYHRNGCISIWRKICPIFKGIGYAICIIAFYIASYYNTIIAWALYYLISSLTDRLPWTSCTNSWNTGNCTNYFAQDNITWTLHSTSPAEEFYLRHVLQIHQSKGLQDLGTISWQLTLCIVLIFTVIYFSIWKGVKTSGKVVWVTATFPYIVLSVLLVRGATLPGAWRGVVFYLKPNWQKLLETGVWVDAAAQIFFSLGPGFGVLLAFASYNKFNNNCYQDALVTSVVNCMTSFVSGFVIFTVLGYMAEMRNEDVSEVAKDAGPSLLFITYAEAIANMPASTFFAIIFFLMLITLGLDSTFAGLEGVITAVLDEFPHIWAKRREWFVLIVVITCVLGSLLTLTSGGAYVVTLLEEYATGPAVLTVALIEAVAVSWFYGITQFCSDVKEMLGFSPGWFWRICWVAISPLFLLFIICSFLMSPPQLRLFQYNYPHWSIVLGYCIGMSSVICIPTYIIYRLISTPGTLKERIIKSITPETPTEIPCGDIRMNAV

[6] = biological target: Sodium-dependent dopamine transporter (Rattus norvegicus, UniProt P23977); assay: Binding affinity to dopamine transporter (DAT) in rat forebrain tissue; format: tissue-based
Chain of Sodium-dependent dopamine transporter (Rattus norvegicus, UniProt P23977) (P23977 whole entry): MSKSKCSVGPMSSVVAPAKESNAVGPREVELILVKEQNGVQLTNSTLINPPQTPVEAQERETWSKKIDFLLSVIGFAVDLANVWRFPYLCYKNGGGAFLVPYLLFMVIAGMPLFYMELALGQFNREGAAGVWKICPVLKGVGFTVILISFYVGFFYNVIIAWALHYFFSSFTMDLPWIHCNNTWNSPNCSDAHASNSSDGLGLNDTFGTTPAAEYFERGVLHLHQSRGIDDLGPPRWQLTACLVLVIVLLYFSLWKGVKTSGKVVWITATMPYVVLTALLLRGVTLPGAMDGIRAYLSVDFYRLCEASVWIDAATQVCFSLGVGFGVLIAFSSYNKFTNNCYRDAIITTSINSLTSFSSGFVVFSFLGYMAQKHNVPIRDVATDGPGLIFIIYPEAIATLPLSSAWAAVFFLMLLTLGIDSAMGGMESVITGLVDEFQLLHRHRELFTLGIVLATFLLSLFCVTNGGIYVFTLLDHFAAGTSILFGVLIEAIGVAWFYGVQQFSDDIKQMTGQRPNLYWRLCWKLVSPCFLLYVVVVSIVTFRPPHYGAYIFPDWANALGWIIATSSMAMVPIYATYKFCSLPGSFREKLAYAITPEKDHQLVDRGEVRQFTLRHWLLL

[7] = biological target: Norepinephrine transporter (Rattus norvegicus, UniProt Q9WTR4); assay: Binding affinity to norepinephrine (NE) transporter in rat forebrain tissue; format: tissue-based
Chain of Norepinephrine transporter (Q9WTR4 whole entry): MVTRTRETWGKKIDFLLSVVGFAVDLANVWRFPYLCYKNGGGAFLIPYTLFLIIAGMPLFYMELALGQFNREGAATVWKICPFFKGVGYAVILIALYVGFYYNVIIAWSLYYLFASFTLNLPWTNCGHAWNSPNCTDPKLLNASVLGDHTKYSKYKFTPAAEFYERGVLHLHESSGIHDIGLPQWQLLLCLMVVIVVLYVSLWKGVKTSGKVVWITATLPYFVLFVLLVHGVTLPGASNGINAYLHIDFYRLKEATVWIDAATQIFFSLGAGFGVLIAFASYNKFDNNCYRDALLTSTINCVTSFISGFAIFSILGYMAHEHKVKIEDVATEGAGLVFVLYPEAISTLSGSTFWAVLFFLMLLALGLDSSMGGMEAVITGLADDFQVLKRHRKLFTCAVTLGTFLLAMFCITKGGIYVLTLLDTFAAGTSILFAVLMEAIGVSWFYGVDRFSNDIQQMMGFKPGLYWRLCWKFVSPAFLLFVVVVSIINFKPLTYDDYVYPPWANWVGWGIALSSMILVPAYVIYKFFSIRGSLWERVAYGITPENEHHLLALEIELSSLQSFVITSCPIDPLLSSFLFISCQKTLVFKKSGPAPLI

Chain of Sodium-dependent noradrenaline transporter (P23975 whole entry): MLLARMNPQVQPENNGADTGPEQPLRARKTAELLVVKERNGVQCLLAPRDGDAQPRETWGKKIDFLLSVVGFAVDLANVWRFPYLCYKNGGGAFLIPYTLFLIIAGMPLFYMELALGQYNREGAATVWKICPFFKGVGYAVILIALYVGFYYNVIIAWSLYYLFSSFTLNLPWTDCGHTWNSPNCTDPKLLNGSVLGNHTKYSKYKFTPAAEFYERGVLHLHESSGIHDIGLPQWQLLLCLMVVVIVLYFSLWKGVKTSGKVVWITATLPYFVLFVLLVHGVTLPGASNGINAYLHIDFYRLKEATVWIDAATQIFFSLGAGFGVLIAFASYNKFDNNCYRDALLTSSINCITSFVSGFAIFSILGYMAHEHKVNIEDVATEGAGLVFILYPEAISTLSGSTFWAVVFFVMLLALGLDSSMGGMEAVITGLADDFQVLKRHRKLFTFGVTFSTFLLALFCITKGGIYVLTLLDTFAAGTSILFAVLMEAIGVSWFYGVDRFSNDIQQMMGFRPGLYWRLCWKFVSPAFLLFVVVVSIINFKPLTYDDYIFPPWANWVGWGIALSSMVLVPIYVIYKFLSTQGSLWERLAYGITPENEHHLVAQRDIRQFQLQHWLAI

COC(=O)C1C(c2cccc(-c3ccco3)c2)CC2CCC1N2C (stereo not drawn)
Ki [1]: 3020 nM | Selectivity ratio [2]: 0.98 | Ki [3]: 55.1 nM | Ki [4]: 54 nM | Ki [5]: 41.7 nM | Ki [6]: 30.8 nM | Ki [7]: 10000 nM

COC(=O)C1C2CCC(CC1c1cccc(I)c1)N2 (stereo not drawn)
Ki [1]: 118 nM | Selectivity ratio [2]: 356 | Ki [3]: 1.23 nM | Ki [4]: 438 nM | Ki [5]: 1.35 nM | Ki [6]: 21.2 nM | Ki [7]: 282 nM

COC(=O)[C@@H]1C2CC[C@H](C[C@@H]1c1ccc(I)cc1)N2C
Ki [1]: 11.2 nM | Ki [5]: 0.41 nM

COC(=O)C1C2CCC(CC1c1ccc(I)cc1)N2 (stereo not drawn)
Ki [5]: 0.062 nM

COC(=O)C1C(c2cccc(-c3ccccc3)c2)CC2CCC1N2C (stereo not drawn)
Ki [1]: 1360 nM | Selectivity ratio [2]: 0.229 | Ki [3]: 38.6 nM | Ki [4]: 8.83 nM | Ki [5]: 35.2 nM | Ki [6]: 9.59 nM | Ki [7]: > 10000 nM

COC(=O)C1C(c2cccc(I)c2)CC2CCC1N2C (stereo not drawn)
Ki [1]: 1040 nM | Selectivity ratio [2]: 18.9 | Ki [3]: 9.63 nM | Ki [4]: 182 nM | Ki [5]: 9.82 nM | Ki [6]: 100 nM | Ki [7]: > 10000 nM

COC(=O)C1C(c2cccc(-c3ccsc3)c2)CC2CCC1N2C (stereo not drawn)
Ki [1]: > 20000 nM | Selectivity ratio [2]: 0.402 | Ki [3]: 74.1 nM | Ki [4]: 29.8 nM | Ki [5]: 82.5 nM | Ki [6]: 23.7 nM | Ki [7]: > 10000 nM
